In patent US8198273B2, “Compounds and methods for kinase modulation, and indications therefor” (Plexxikon Inc., priority 2009, dated 2012):
pIC50: −log10 of the molar value.

Columns and labels:
CYP3A4(BFC) = CYP3A4(BFC) (Homo sapiens, UniProt P08684); assay: CYP3A4(BFC) inhibition (fluorescent substrate); type: in vitro ADME; details: read-out: Cyp IC50 3A4(BFC)
How it was run: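 Compound, from a 100 mM DMSO stock and diluted 1:1 over 10 points in co-factor mix, was incubated at 37° C with enzyme and a known substrate. Decrease in fluorescent product against concentration gave the IC50.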

[1] = Relative solubility by turbidity in aqueous buffers of varying pH; type: physicochemical
How it was run: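 Turbidity endpoint: concentration where optical density at 490, 535 and 650 nm exceeds 0.01, three-wavelength average used. Buffers at pH 1.5, 4.5, 6.8 and 7.4; DMSO serial dilutions of 25 mM stock spiked 1 μL into 99 μL buffer. Low <31.3, moderate 31.3–250, high >250 μM.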

B-Raf = B-Raf (Homo sapiens, UniProt P15056); assay: B-Raf biochemical kinase inhibition (AlphaScreen, biotin-MEK1 substrate); details: 100 μM ATP
How it was run: (§1)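 Eight-point compound series (made from a 0.1 mM DMSO stock) tested against each Raf enzyme with biotin-MEK1 substrate and 100 μM final ATP.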

B-Raf V600E = B-Raf V600E (Homo sapiens, UniProt P15056, V600E); assay: B-Raf V600E biochemical kinase inhibition (AlphaScreen, biotin-MEK1 substrate); details: 100 μM ATP
How it was run: as §1

Sequence of CYP3A4(BFC) (P08684 whole entry): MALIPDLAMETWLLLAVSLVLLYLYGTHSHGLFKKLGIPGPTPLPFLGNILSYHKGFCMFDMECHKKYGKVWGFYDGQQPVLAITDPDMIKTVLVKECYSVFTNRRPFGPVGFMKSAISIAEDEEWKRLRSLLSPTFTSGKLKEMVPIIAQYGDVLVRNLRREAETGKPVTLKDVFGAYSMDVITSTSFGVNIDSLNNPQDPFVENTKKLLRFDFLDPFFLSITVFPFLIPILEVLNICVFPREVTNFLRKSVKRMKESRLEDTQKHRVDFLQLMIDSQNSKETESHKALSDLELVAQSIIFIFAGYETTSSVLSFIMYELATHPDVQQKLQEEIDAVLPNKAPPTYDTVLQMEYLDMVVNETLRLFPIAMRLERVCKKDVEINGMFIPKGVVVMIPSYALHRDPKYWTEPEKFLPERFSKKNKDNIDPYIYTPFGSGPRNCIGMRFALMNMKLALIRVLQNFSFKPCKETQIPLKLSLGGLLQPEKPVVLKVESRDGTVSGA
Sequence of B-Raf (P15056 whole entry): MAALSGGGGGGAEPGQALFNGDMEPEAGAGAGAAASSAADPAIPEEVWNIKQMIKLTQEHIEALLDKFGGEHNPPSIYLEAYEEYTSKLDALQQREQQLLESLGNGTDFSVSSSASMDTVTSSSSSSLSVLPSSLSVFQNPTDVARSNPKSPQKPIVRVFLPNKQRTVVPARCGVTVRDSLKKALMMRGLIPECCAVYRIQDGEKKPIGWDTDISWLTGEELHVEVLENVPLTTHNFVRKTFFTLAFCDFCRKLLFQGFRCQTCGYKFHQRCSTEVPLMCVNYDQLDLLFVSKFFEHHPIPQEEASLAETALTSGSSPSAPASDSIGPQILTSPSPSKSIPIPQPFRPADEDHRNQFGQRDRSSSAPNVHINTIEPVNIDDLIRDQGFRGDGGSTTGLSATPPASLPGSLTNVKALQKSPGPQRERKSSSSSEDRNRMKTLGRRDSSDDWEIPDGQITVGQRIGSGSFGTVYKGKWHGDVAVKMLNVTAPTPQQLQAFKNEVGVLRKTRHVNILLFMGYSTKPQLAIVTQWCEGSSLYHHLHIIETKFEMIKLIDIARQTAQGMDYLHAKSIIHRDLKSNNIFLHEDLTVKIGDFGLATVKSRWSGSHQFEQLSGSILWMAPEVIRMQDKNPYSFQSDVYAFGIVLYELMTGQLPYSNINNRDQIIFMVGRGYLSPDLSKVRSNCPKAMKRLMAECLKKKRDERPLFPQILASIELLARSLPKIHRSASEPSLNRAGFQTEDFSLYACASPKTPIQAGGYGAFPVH
Sequence of B-Raf V600E (P15056 whole entry V600E): as the sequence (P15056 whole entry) above, with V600E counted along it

CCCS(=O)(=O)Nc1ccc(F)c(C(=O)c2c[nH]c3ncc(-c4ccc(N(C)C)nc4)cc23)c1F [P-2229, Propane-1-sulfonic acid {3-[5-(6-dimethylamino-pyridin-3-yl)-1H-pyrrolo[2,3-b]pyridine-3-carbonyl]-2,4-difluoro-phenyl}-amide]
pIC50 (CYP3A4(BFC)): < 5.00 | turbidity threshold (L, M, H) 7.4 ([1]; HEPES pH 7.4): M (moderate solubility if the threshold concentration is 31.3 μM to 250 μM) | turbidity threshold (L, M, H) 4.5 ([1]; SIF pH 4.5): L (low solubility if the threshold concentration is <31.3 04) | turbidity threshold (L, M, H) 6.8 ([1]; SIF pH 6.8): M (moderate solubility if the threshold concentration is 31.3 μM to 250 μM) | turbidity threshold (L, M, H) 1.4 ([1]; buffer pH 1.4 (SGF)): M (moderate solubility if the threshold concentration is 31.3 μM to 250 μM) | pIC50 (B-Raf): > 7.00 | pIC50 (B-Raf V600E): > 7.00
